Data taken from US4450269A, “Mono-5-substituted-3-chloro-4H-1,2,6-thiadiazin-4-one antifungal agents” (FMC Corporation, priority 1980, dated 1984).

Assays:
Fusarium solani = test: Soil treatment, bean root rot; type: in vivo; conditions: 150 ppm suspension, 3.8 mg active per pot; for pest or weed control at 150 ppm, 3.8 mg/pot: Fusarium solani, soil, 336 h, read-out: Percent Disease Control, seed/soil, bean root rot
Procedure: In a similar manner the soil around a bean seedling was drenched with a sufficient amount of 150 ppm suspension of test chemical to provide 3.8 mg active per pot. Twenty-four hours later the soil was inoculated with a suspension of minced mycelium of Fusarium solani. The inoculated plants were then placed in a greenhouse, evaluated after fourteen days, and percent control of root rot damage calculated. The results, reported in Table III, indicate only a few of the compounds tested are effective in treating Bean Root Rot but that these provide a high degree of control.

[1] = test system: Pythium ultimum and Rhizoctonia solani; test: Soil/seed treatment, cucumber damping-off complex; type: in vivo; conditions: 150 ppm suspension, 3.75 to 3.8 mg per pot
Procedure: Containers having a volume of about 0.25 l. were 2/3 filled with topsoil and 25 cucumber c.v. [Straight Eight` seeds deposited on the soil surface of each pot. A suspension containing 150 ppm of the test chemical was poured over the seeds and into the soil in sufficient quantity to provide 3.75 to 3.8 mg active ingredient per pot.
Fungi used in this test were Pythium ultimum and Rhizoctonia solani. These fungi were each grown on potato dextrose agar for three to six days. The agar plus mycelium was then minced in a blender with water and 10 ml of the resulting slurry of minced mycelium poured over the seeds.
Following inoculation approximately 15 mm of topsoil was spread over the seeds, the container capped and incubated at 4° C. in darkness for three days, then transferred to a greenhouse (27° C.) for 10-14 days, at which time stand counts were made. Captan was used as a standard for comparison. Based on stand counts on Efficacy Index was calculated for each test chemical as follows: [formula]

Uromyces phaseoli [2] = conditions: in vivo
Uromyces phaseoli [3] = conditions: in vivo; remark: listed apart in the source
Erysiphe polygoni = conditions: in vivo
Cercospora beticola [4] = conditions: in vivo
Cercospora beticola [5] = test: whole plant or invertebrate; conditions: in Beta vulgaris, foliar, 24 h, read-out: Percent Disease Control, curative, sugar beet leaf spot

Molecule | pest or weed control at 150 ppm, 3.8 mg/pot (Fusarium solani) [%] | pest or weed control at 150 ppm (Cercospora beticola [5]) [%] | further results
3-chloro-5-(bromophenoxy)-4H-1,2,6-thiadiazin-4-one [Compound 33] |  |  | Percent Disease Control, seed/soil, bean root rot (Fusarium solani): 95%; Efficacy Index, seed/soil, cucumber damping-off complex [1]: 0; Percent Disease Control, foliar, bean rust (Uromyces phaseoli [2]): 100%; Percent Disease Control, curative, bean rust (Uromyces phaseoli [3]): 0%; Percent Disease Control, curative, bean powdery mildew (Erysiphe polygoni): 95%; Percent Disease Control, curative, sugar beet leaf spot (Cercospora beticola [4]): 0%
O=C(Nc1ccccc1)Nc1ccc(Oc2nsnc(Cl)c2=O)cc1 [Compound 29, 3-chloro-5-[4-(3-phenylureido)-phenoxy]-4H--1,2,6-thiadiazin-4-one] | 0 | 95 | 
Cc1cccc(C)c1Oc1nsnc(Cl)c1=O [Compound 24, 3-chloro-5-(2,6-dimethylphenoxy)-4H--1,2,6-thiadiazin-4-one] | 0 | 50 | 
O=C(O)c1ccc(Oc2nsnc(Cl)c2=O)cc1 [Compound 50, 3-(4-carboxyphenoxy)-5-chloro-4H--1,2,6-thiadiazin-4-one] | 0 | 50 | 
Cc1cccc(Oc2nsnc(Cl)c2=O)c1 [Compound 21, 3-chloro-5-(3-methylphenoxy)-4H--1,2,6-thiadiazin-4-one] | 0 | 100 | 
O=c1c(Cl)nsnc1Oc1ccc(Cl)cc1 [Compound 12, 3-chloro-5-(4-chlorophenoxy)-4H--1,2,6-thiadiazin-4-one] | 0 | 95 | 
CC(=O)c1ccccc1Oc1nsnc(Cl)c1=O [Compound 49, 3-(2-acetylphenoxy)-5-chloro-4H--1,2,6-thiadiazin-4-one] | 0 | 0 | 
Cc1ccc(Oc2nsnc(Cl)c2=O)c(Br)c1 [Compound 57, 3-[(2-bromo-4-methyl)-phenoxy]-5-chloro-4H--1,2,6-thiadiazin-4-one] | 0 | 90 | 
Cc1cc(Oc2nsnc(Cl)c2=O)cc(C)c1Br [Compound 60, 3-[(4-bromo-3,5-dimethyl)-phenoxy]-5-chloro-4H--1,2,6-thiadiazin-4-one] | 0 | 0 | 
Nc1ccc(Oc2nsnc(Cl)c2=O)cc1 [Compound 26, 5-(4-aminophenoxy)-3-chloro-4H--1,2,6-thiadiazin-4-one] | 0 | 95 | 
O=c1c(Cl)nsnc1Oc1c(Cl)c(Cl)c(Cl)c(Cl)c1Cl [Compound 31, 3-chloro-5-(pentachlorophenoxy)-4H--1,2,6-thiadiazine-4-one] | 0 | 0 | 
O=c1c(Cl)nsnc1Oc1ccc(Br)cc1 [Compound 15, 3-chloro-5-(4-bromophenoxy)-4H--1,2,6-thiadiazin-4-one] | 0 | 0 | 
